Test results reported in patent publication US11673876B2, “Substituted aminobenzyl heteroaryl compounds as EGFR and/or PI3K inhibitors” (Mekanistic Therapeutics LLC, priority 2020, dated 2023).

What was measured:
Type in all cases: in vivo
[1] = Tolerability in the xenograft studies; details: highest dose tested 100 mg/kg, daily dosing over >50 days
Protocol: (§1) Xenograft Studies. Female NCR nude mice (CrTac:NCr-Foxn1nu from Taconic), 6-7 weeks old, were implanted subcutaneously with 5×10^6 cells in a 1:1 serum-free media/Matrigel® mixture into the region of the right axilla. Mice were randomized into treatment groups and treatments initiated when tumors reached 100 to 200 mg. Compound 2R was administered daily by oral gavage as a fine suspension in 1:2 propylene (glycol in 1% Tween80/Na3PO4 based upon individual animal body weight (0.2 mL/20 g). Subcutaneous tumor volume and body weights were measured two to three times a week. Tumor volumes were calculated by measuring two perpendicular diameters with calipers and using the formula: tumor volume=(length×width2)/2. Individual mice were dosed daily until their tumor burden reached 500 mg for the CAL-27 and HCC-70 models or 1000 mg for the CAL-33 model, to allow for calculation of increase in progression-free survival. Percent increase in survival was calculated by comparing the median time to reach either 500 mg or 1000 mg in the treated group versus the vehicle control group. A complete response (CR) is defined as a tumor below the limits of palpation (<40 mg).
(§2) FIGS. 1-3 show the performance of Compound 2R in controlling tumor size. […] Tumor growth curves as well as survival and objective response data are summarized in the accompanying FIGS. 1-3 and the table below.

[2] = test system: human HCC-70 (triple negative breast cancer); assay: HCC-70 xenograft study in NCR nude mice
Protocol: as §1, §2

[3] = test system: PI3K gamma mutant human CAL-27 (squamous head and neck cancer); assay: CAL-27 xenograft study in NCR nude mice; details: CAL-27 model
Protocol: as §1, §2

[4] = test system: PIK3CA mutant human CAL-33 (squamous head and neck cancer); assay: CAL-33 xenograft study in NCR nude mice; details: for Median Increase In Survival: time to 1000 mg vs vehicle
Protocol: as §1, §2

C[C@@H](Nc1ncnc2ccc(-c3cnc(Cl)c(NS(C)(=O)=O)c3)cc12)c1ccccc1 [Compound 2R, N-(2-chloro-5-(4-((1R-phenylethyl)amino)quinazolin-6-yl)pyridin-3-yl)methanesulfonamide]
tolerability (body weight loss, clinical signs) [1]: well tolerated at the highest dose tested (100 mg/kg) with no signs of body weight loss or other clinical signs | Median Increase In Survival ([2]; HCC-70, 100 mg/kg daily oral gavage, time to 500 mg vs vehicle): 363% | single agent activity (tumor growth) ([2]; HCC-70 model): Single agent activity of Compound 2R was demonstrated | single agent activity (tumor growth) [3]: Single agent activity of Compound 2R was demonstrated | Median Increase In Survival ([4]; CAL-33, 25 mg/kg daily oral gavage): >700% | Median Increase In Survival ([4]; CAL-33, 50 mg/kg daily oral gavage): >700% | Median Increase In Survival ([4]; CAL-33, 100 mg/kg daily oral gavage): >700% | single agent activity (tumor growth) ([4]; CAL-33 model): Single agent activity of Compound 2R was demonstrated
